Source: ChEMBL document CHEMBL5724914, “Linking interpersonal differences in gut microbiota composition and drug biotransformation activity” (2024)

Key:
[1] = human gut metagenome, 24 h, 2 µM
[2] = human gut metagenome, 24 h, 2 µM; remark: listed apart in the source
[3] = human gut metagenome, 24 h, 2 µM; remark: listed apart in the source
[4] = human gut metagenome, 24 h, 2 µM; remark: listed apart in the source
[5] = (§1) The drug is tested on WLS-038 corresponding to human gut metagenome with ENA study accession number: PRJEB37062 and ENA sample accession number: ERS12561745 for biotransformation under anaerobic condition. The drug concentrations were measured over 9 timepoints collected between 0 and 24 hours of incubation by liquid-chromatography-coupled mass spectrometry (LC–MS); details: 2 µM
[6] = as §1, with “Z-019” for “WLS-038”, “rat” for “human”, “ERS12561818” for “ERS12561745”; details: 2 µM
[7] = as §1, with “Z-029” for “WLS-038”, “rat” for “human”, “ERS12561828” for “ERS12561745”; details: 2 µM
[8] = human gut metagenome, 24 h, 2 µM; remark: listed apart in the source
[9] = as §1, with “Z-002” for “WLS-038”, “rabbit” for “human”, “ERS12561802” for “ERS12561745”; details: 2 µM
Further: call rule not given here.

Row | SMILES | Bacterial Biotransformation [1] | Bacterial Biotransformation [2] | Bacterial Biotransformation [3] | Bacterial Biotransformation [4] | Bacterial Biotransformation [5] | Bacterial Biotransformation [6] | Bacterial Biotransformation [7] | Bacterial Biotransformation [8] | Bacterial Biotransformation [9]
1 | NC(=O)N1c2ccccc2CC(=O)c2ccccc21 [OXCARBAZEPINE] | Compound metabolized | Compound NOT metabolized | Compound NOT metabolized | Compound NOT metabolized | Compound NOT metabolized | Compound NOT metabolized | Compound NOT metabolized | Compound NOT metabolized | Compound metabolized
2 | C=CCN1CC[C@]23c4c5ccc(O)c4O[C@H]2C(=O)CC[C@@]3(O)[C@H]1C5 [NALOXONE] | Compound NOT metabolized | Compound NOT metabolized | Compound NOT metabolized | Compound NOT metabolized | Compound NOT metabolized | Compound NOT metabolized | Compound NOT metabolized | Compound NOT metabolized | Compound NOT metabolized
3 | CC(C)(Oc1ccc(CCNC(=O)c2ccc(Cl)cc2)cc1)C(=O)O [BEZAFIBRATE] | Compound metabolized | Compound metabolized | Compound metabolized | Compound metabolized | Compound metabolized | Compound NOT metabolized | Compound NOT metabolized | Compound NOT metabolized | Compound metabolized
4 | Cc1nc(-c2ccc(OCC(C)C)c(C#N)c2)sc1C(=O)O [FEBUXOSTAT] | Compound metabolized | Compound metabolized | Compound metabolized | Compound metabolized | Compound metabolized | Compound NOT metabolized | Compound NOT metabolized | Compound metabolized | Compound metabolized
5 | CCC(COC(=O)c1cc(OC)c(OC)c(OC)c1)(c1ccccc1)N(C)C.O=C(O)/C=C\C(=O)O (stereo unspecified) | Compound NOT metabolized | Compound metabolized | Compound NOT metabolized | Compound metabolized | Compound NOT metabolized | Compound NOT metabolized | Compound NOT metabolized | Compound metabolized | Compound NOT metabolized
6 | CC(Oc1c(Cl)cccc1Cl)C1=NCCN1 (stereo unspecified) [LOFEXIDINE] | Compound NOT metabolized | Compound metabolized | Compound NOT metabolized | Compound metabolized | Compound NOT metabolized | Compound NOT metabolized | Compound NOT metabolized | Compound NOT metabolized | Compound metabolized
7 | COC(=O)Nc1nc2ccc(C(=O)c3ccccc3)cc2[nH]1 [MEBENDAZOLE] | Compound metabolized | Compound metabolized | Compound NOT metabolized | Compound metabolized | Compound metabolized | Compound NOT metabolized | Compound metabolized | Compound metabolized | Compound metabolized
8 | CC(C)NCC(O)c1ccc(NS(C)(=O)=O)cc1 (stereo unspecified) [SOTALOL] | Compound NOT metabolized | Compound NOT metabolized | Compound NOT metabolized | Compound NOT metabolized | Compound NOT metabolized | Compound NOT metabolized | Compound NOT metabolized | Compound NOT metabolized | Compound NOT metabolized
9 | CC(=O)OCC(=O)[C@@]1(O)[C@@H](C)C[C@H]2[C@@H]3CCC4=CC(=O)C=C[C@]4(C)[C@@]3(F)[C@@H](O)C[C@@]21C [BETAMETHASONE ACETATE] | Compound metabolized | Compound metabolized | Compound metabolized | Compound metabolized | Compound metabolized | Compound NOT metabolized | Compound metabolized | Compound metabolized | Compound metabolized
10 | COc1ccc2c(c1OC)C(=O)O[C@@H]2[C@H]1c2c(cc3c(c2OC)OCO3)CCN1C [NOSCAPINE] | Compound NOT metabolized | Compound metabolized | Compound metabolized | Compound NOT metabolized | Compound NOT metabolized | Compound NOT metabolized | Compound NOT metabolized | Compound NOT metabolized | Compound metabolized
11 | CC(C)NCC(O)COc1ccc(CCOCC2CC2)cc1 (stereo unspecified) [BETAXOLOL] | Compound NOT metabolized | Compound NOT metabolized | Compound NOT metabolized | Compound NOT metabolized | Compound NOT metabolized | Compound NOT metabolized | Compound NOT metabolized | Compound NOT metabolized | Compound metabolized
12 | OCCOCCN1CCN(C2=Nc3ccccc3Sc3ccccc32)CC1 [QUETIAPINE] | Compound NOT metabolized | Compound metabolized | Compound NOT metabolized | Compound NOT metabolized | Compound NOT metabolized | Compound NOT metabolized | Compound NOT metabolized | Compound NOT metabolized | Compound metabolized
13 | COCCc1ccc(OCC(O)CNC(C)C)cc1.COCCc1ccc(OCC(O)CNC(C)C)cc1.O=C(O)C(O)C(O)C(=O)O (stereo unspecified) [METOPROLOL TARTRATE] | Compound NOT metabolized | Compound metabolized | Compound NOT metabolized | Compound NOT metabolized | Compound NOT metabolized | Compound NOT metabolized | Compound NOT metabolized | Compound NOT metabolized | Compound metabolized
14 | CCCc1nc2c(C)cc(-c3nc4ccccc4n3C)cc2n1Cc1ccc(-c2ccccc2C(=O)O)cc1 | Compound metabolized | Compound metabolized | Compound metabolized | Compound metabolized | Compound metabolized | Compound NOT metabolized | Compound NOT metabolized | Compound metabolized | Compound metabolized
15 | COC1=CC(=O)C[C@@H](C)[C@]12Oc1c(Cl)c(OC)cc(OC)c1C2=O [GRISEOFULVIN] | Compound metabolized | Compound metabolized | Compound metabolized | Compound metabolized | Compound metabolized | Compound NOT metabolized | Compound NOT metabolized | Compound metabolized | Compound metabolized
16 | CO[C@]12C[C@@H](COC(=O)c3cncc(Br)c3)CN(C)[C@@H]1Cc1cn(C)c3cccc2c13 [NICERGOLINE] | Compound metabolized | Compound metabolized | Compound NOT metabolized | Compound NOT metabolized | Compound NOT metabolized | Compound NOT metabolized | Compound NOT metabolized | Compound NOT metabolized | Compound metabolized
17 | Cc1ccnc2c1NC(=O)c1cccnc1N2C1CC1 [NEVIRAPINE] | Compound NOT metabolized | Compound metabolized | Compound NOT metabolized | Compound metabolized | Compound NOT metabolized | Compound NOT metabolized | Compound NOT metabolized | Compound NOT metabolized | Compound metabolized
18 | CCN(CC)C(C)CN1c2ccccc2Sc2ccccc21 (stereo unspecified) [ETHOPROPAZINE] | Compound metabolized | Compound metabolized | Compound metabolized | Compound metabolized | Compound NOT metabolized | Compound NOT metabolized | Compound NOT metabolized | Compound metabolized | Compound metabolized
19 | COc1cc2nc(N(C)CCCNC(=O)C3CCCO3)nc(N)c2cc1OC (stereo unspecified) [ALFUZOSIN] | Compound metabolized | Compound metabolized | Compound metabolized | Compound metabolized | Compound NOT metabolized | Compound NOT metabolized | Compound NOT metabolized | Compound metabolized | Compound metabolized
